#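 Method: 48-hour compound exposure of cells in 96-well plates, five concentrations, linear interpolation of endpoints. Abbreviation: GI50, concentration required for 50% inhibition of growth. TGI: concentration producing complete growth inhibition.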
# How the values were obtained:
# Test in all cases: NCI anticancer screen, dose series, 48 h
# [1] = test system: BT-549 breast
# [2] = test system: DU-145 prostate
# [3] = test system: MDA-MB-231 breast
# [4] = test system: MDA-N
# [5] = test system: NCI-H23 lung
# [6] = test system: RXF 393 renal
# [7] = test system: SF-539 CNS
# [8] = test system: U251 CNS
# [9] = test system: UACC-62 melanoma
# [10] = test system: T-47D breast
SMILES,TGI [1] [µM],TGI [2] [µM],TGI [3] [µM],TGI [4] [µM],TGI [5] [µM],TGI [6] [µM],TGI [7] [µM],TGI [8] [µM],TGI [9] [µM],TGI [10] [µM],GI50 [1] [µM],GI50 [2] [µM],GI50 [3] [µM],GI50 [5] [µM],GI50 [6] [µM],GI50 [7] [µM],GI50 [10] [µM],GI50 [8] [µM],GI50 [9] [µM]
CCOC(=O)/C=C1/Nc2cc(F)c(F)cc2NC1=O,> 100,> 100,> 100,> 100,> 100,> 100,> 100,> 100,> 100,–,–,–,–,–,–,–,–,–,–
CCCN(CCC)c1c([N+](=O)[O-])cc(C(=O)N(C)C)cc1[N+](=O)[O-],–,–,–,–,> 100,–,> 100,> 100,–,–,–,–,–,–,–,–,–,–,–
Cc1ccc(NC(=O)CC(=O)N2N=C(c3ccccc3)C(N=Nc3ccc(S(=O)(=O)CCOS(=O)(=O)O)cc3)C2=O)cc1 (centres undefined),> 100,> 100,> 100,> 100,> 100,> 100,> 100,> 100,–,–,–,–,–,–,–,–,–,–,–
O=c1c(S(=O)(=O)Oc2ccccc2)coc2cc(F)ccc12,> 100,–,> 100,> 100,> 100,> 100,> 100,> 100,> 100,> 100,–,–,–,–,–,–,–,–,–
Cc1ccsc1/C=N/Nc1ccccn1,> 100,> 100,> 100,> 100,> 100,> 100,–,> 100,> 100,> 100,–,–,–,–,–,–,–,–,–
Cc1oc2c(C)c3oc(=O)cc(C)c3cc2c1CN,–,–,–,–,> 100,> 100,> 100,74.8,> 100,–,–,–,–,–,–,–,–,–,–
COC1=CCC2=C(CCN(C(=O)C3CCC3)C2Cc2ccc(OC)c(O)c2)C1 (centres undefined),–,51.9,> 100,9.04,28.7,21.2,> 100,> 100,> 100,62.4,–,–,–,–,–,–,–,–,–
C/C(=N\n1c(Cc2ccccc2)n[nH]c1=O)c1ccc([N+](=O)[O-])cc1,> 100,> 100,> 100,> 100,> 100,57.2,–,> 100,> 100,> 100,–,–,–,–,–,–,–,–,–
CC(C)(Oc1ccc(C(=O)c2ccc(Cl)cc2)cc1Cl)C(=O)N1CCN(c2ccccc2)CC1,–,–,–,–,> 100,–,> 100,> 100,> 100,–,–,–,–,–,–,–,–,–,–
NC(CNc1ccc(O)cc1)C(=O)O (centres undefined),–,–,–,–,–,> 100,–,> 100,49.4,–,–,–,–,–,–,–,–,–,–
CN(/N=C/c1ccc(Cl)c(Cl)c1)C1=NCCN1,95.3,> 100,77.2,31.9,> 100,–,40.4,59.8,35.4,90.8,–,–,–,–,–,–,–,–,–
N#CI1OC(C(F)(F)F)(C(F)(F)F)c2ccccc21,40.9,38.4,54.7,–,36,32.4,36.9,52.5,38.8,49.3,–,–,–,–,–,–,–,–,–
COC1CCC(n2c([C@@H]3CCCC(=O)N3c3ccc(F)c(F)c3)nc3cc(-c4c(C)noc4C)ccc32)CC1 (some centres undefined),27.2,54.2,26,–,40.5,17.7,23,23.8,16.1,50.7,10.3,16.8,8.46,13.3,4.82,9.79,2.03,10.2,2.52
